Results reported in ChEMBL document CHEMBL1144830, “Synthesis of small molecule inhibitors of the orphan nuclear receptor steroidogenic factor-1 (NR5A1) based on isoquinolinone scaffolds” (Bioorg Med Chem Lett, 2008).
Blank lines part the entries; values can stand above or below the compound they belong to.

What was measured:
Steroidogenic factor 1 [1] = target: T1, Steroidogenic factor 1 (Homo sapiens, UniProt Q13285); assay: Inhibition of GAL4-tagged NR5A1 by luciferase assay
[2] = target: T2, Nuclear receptor ROR-alpha (Homo sapiens, UniProt P35398); assay: Inhibition of GAL4-tagged RORalpha by luciferase assay
T2 sequence (P35398 whole entry): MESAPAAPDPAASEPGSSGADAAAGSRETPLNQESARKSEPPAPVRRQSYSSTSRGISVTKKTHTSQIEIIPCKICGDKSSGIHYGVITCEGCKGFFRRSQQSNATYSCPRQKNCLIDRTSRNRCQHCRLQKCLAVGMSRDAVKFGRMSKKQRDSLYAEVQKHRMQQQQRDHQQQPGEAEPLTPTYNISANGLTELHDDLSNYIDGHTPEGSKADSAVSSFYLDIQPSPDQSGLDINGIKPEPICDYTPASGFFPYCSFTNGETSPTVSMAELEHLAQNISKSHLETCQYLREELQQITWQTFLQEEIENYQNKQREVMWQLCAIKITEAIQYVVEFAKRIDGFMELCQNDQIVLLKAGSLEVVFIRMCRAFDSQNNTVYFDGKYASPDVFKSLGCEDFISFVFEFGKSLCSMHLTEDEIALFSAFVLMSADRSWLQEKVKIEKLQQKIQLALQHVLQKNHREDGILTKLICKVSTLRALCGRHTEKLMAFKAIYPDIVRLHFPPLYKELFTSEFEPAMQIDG

[3] = Inhibition of HSV1 GAL4-tagged VP16 by luciferase assay
[4] = target: T3, Nuclear receptor ROR-alpha (Homo sapiens) (UniProt P35398); assay: Inhibition of GAL4-tagged RORalpha at 100 uM by luciferase assay
T3 sequence (whole entry): T2 sequence (P35398 whole entry)

[5] = Inhibition of HSV1 GAL4-tagged VP16 at 100 uM by luciferase assay
Steroidogenic factor 1 [6] = target: T1, Steroidogenic factor 1; assay: Inhibition of GAL4-tagged NR5A1 at 100 uM by luciferase assay

T1 sequence (Q13285 whole entry, the tested form may be a part): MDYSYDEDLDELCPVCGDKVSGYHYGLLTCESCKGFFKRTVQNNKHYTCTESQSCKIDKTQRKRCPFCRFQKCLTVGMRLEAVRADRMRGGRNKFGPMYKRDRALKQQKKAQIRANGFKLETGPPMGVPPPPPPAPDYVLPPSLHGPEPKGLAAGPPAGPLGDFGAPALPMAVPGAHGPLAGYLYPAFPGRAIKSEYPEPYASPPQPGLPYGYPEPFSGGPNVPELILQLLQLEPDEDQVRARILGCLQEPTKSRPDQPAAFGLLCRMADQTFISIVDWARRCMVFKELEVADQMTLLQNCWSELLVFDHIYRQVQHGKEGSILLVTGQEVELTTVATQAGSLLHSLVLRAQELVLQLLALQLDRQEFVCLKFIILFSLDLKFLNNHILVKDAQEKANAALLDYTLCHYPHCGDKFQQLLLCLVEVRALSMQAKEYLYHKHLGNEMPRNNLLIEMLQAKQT

IC50 (Steroidogenic factor 1 [1]): 110 nM
IC50 [2]: 25 µM
IC50 [3]: > 33 µM
Structure (SMILES): CCOC(=O)C(C)Oc1cccc2c(=O)n(CC(=O)Nc3ccc(CC)cc3)ccc12 (stereo unspecified)

IC50 (Steroidogenic factor 1 [1]): 590 nM
inhibition [4]: < 50%
IC50 [3]: > 33 µM
Structure (SMILES): CCOC(=O)C(C)(C)Oc1cccc2c(=O)n(CC(=O)Nc3ccc4c(c3)OCCO4)ccc12

IC50 (Steroidogenic factor 1 [1]): 9710 nM
inhibition [4]: < 50%
inhibition [5]: < 50%
Structure (SMILES): CCCCNC(=O)Cn1ccc2c(OC(C)C(=O)OCC)cccc2c1=O (stereo unspecified)

IC50 (Steroidogenic factor 1 [1]): 8460 nM
inhibition [4]: < 50%
inhibition [5]: < 50%
Structure (SMILES): CCOC(=O)C(C)Oc1cccc2c(=O)n(CCC(=O)Nc3ccc4c(c3)OCCO4)ccc12 (stereo unspecified)

inhibition (Steroidogenic factor 1 [6]): < 50%
inhibition [4]: < 50%
inhibition [5]: < 50%
Structure (SMILES): CCOC(=O)C(C)Oc1cccc2c(=O)n(C(C)C(=O)Nc3ccc4c(c3)OCCO4)ccc12 (stereo unspecified)

IC50 (Steroidogenic factor 1 [1]): 3570 nM
inhibition [4]: < 50%
inhibition [5]: < 50%
Structure (SMILES): CCOC(=O)C(C)Oc1cccc2c(=O)n(CC(=O)N(C)c3ccc4c(c3)OCCO4)ccc12 (stereo unspecified)

inhibition (Steroidogenic factor 1 [6]): < 50%
inhibition [4]: < 50%
inhibition [5]: < 50%
Structure (SMILES): CCOC(=O)C(C)Oc1cccc2c(=O)n(C(Cc3ccccc3)C(=O)Nc3ccc4c(c3)OCCO4)ccc12 (stereo unspecified)

IC50 (Steroidogenic factor 1 [1]): 200 nM
inhibition [4]: < 50%
inhibition [5]: < 50%
Structure (SMILES): CCOC(=O)C(C)Oc1cccc2c(=O)n(CC(=O)Nc3ccc(OC(F)(F)F)cc3)ccc12 (stereo unspecified)

IC50 (Steroidogenic factor 1 [1]): 200 nM
inhibition [4]: < 50%
inhibition [5]: < 50%
Structure (SMILES): CCOC(=O)C(C)Oc1cccc2c(=O)n(CC(=O)Nc3ccc(OC)cc3)ccc12 (stereo unspecified)

The remaining lines, values behind:

Structure (SMILES): CCCCOc1cccc2c(=O)n(CC(=O)Nc3ccc4c(c3)OCCO4)ccc12
IC50 (Steroidogenic factor 1 [1]): 13700 nM
IC50 [2]: 21.5 µM
IC50 [3]: 24.1 µM

Structure (SMILES): CCOC(=O)C(C)Oc1cccc2c(=O)n(CC(=O)NCCc3ccccc3)ccc12 (stereo unspecified)
IC50 (Steroidogenic factor 1 [1]): 360 nM
IC50 [2]: > 33 µM
inhibition [5]: < 50%

Structure (SMILES): CCOC(=O)C(C)Oc1cccc2c(=O)n(CC(=O)NC3CCCCC3)ccc12 (stereo unspecified)
IC50 (Steroidogenic factor 1 [1]): 1770 nM
inhibition [4]: < 50%
inhibition [5]: < 50%

Structure (SMILES): CCOC(=O)C(C)Oc1cccc2c(=O)n(CC(=O)NCc3ccc4c(c3)OCO4)ccc12 (stereo unspecified)
IC50 (Steroidogenic factor 1 [1]): 260 nM
IC50 [2]: > 33 µM
IC50 [3]: > 33 µM

Structure (SMILES): CCOC(=O)C(C)Oc1cccc2c(=O)n(CC(=O)Nc3ccc(OCC)cc3)ccc12 (stereo unspecified)
IC50 (Steroidogenic factor 1 [1]): 190 nM
IC50 [2]: 22.6 µM
IC50 [3]: 24.2 µM

Structure (SMILES): CCOC(=O)C(C)Oc1cccc2c(=O)n(CC(=O)Nc3ccc([N+](=O)[O-])cc3)ccc12 (stereo unspecified)
IC50 (Steroidogenic factor 1 [1]): 530 nM
inhibition [4]: < 50%
inhibition [5]: < 50%

Structure (SMILES): CCOC(=O)C(C)Oc1cccc2c(=O)n(CC(=O)NCc3ccco3)ccc12 (stereo unspecified)
IC50 (Steroidogenic factor 1 [1]): 4710 nM
IC50 [2]: > 33 µM
inhibition [5]: < 50%

Structure (SMILES): CCOC(=O)C(C)Oc1cccc2c(=O)n(CC(=O)NCc3ccccc3)ccc12 (stereo unspecified)
IC50 (Steroidogenic factor 1 [1]): 1060 nM
IC50 [2]: 3.22 µM
inhibition [5]: < 50%

Structure (SMILES): CCOC(=O)C(C)Oc1cccc2c(=O)n(CC(=O)NCc3ccc(F)cc3)ccc12 (stereo unspecified)
IC50 (Steroidogenic factor 1 [1]): 680 nM
IC50 [2]: 1.68 µM
inhibition [5]: < 50%

Structure (SMILES): CCOC(=O)C(C)Oc1cccc2c(=O)n(CC(=O)Nc3ccc(C)cc3)ccc12 (stereo unspecified)
IC50 (Steroidogenic factor 1 [1]): 340 nM
IC50 [2]: 36.5 µM
IC50 [3]: > 33 µM

Structure (SMILES): CCOC(=O)C(C)Oc1ccc2c(=O)n(CC(=O)Nc3ccc4c(c3)OCCO4)ccc2c1 (stereo unspecified)
inhibition (Steroidogenic factor 1 [6]): < 50%
inhibition [4]: < 50%
inhibition [5]: < 50%

Structure (SMILES): CCOC(=O)C(C)Oc1cccc2c(=O)n(CC(=O)Nc3ccc4c(c3)OCCO4)ccc12 (stereo unspecified)
IC50 (Steroidogenic factor 1 [1]): 760 nM
IC50 [2]: > 33 µM
IC50 [3]: > 33 µM

Structure (SMILES): CCCCc1ccc(NC(=O)Cn2ccc3c(OC(C)C(=O)OCC)cccc3c2=O)cc1 (stereo unspecified)
IC50 (Steroidogenic factor 1 [1]): 360 nM
IC50 [2]: 30.7 µM
inhibition [5]: < 50%
